Data reported in US6534546B1 (Chugai Seiyaku Kabushiki Kaisha, priority 1994, dated 2003).

Key:
iNOS = iNOS (Homo sapiens, UniProt P35228); settings: literature reports; cited from earlier work
N-cNOS = N-cNOS (Homo sapiens, UniProt P29475); settings: literature reports; cited from earlier work
E-cNOS (Type 3) = molecular target: T1, E-cNOS (Type 3) (Bos taurus, UniProt P29473); test: biochemical; settings: mean of one to four independent experiments; crude enzyme, 100 nM L-[3H]arginine; read-out: IC50 value, E-cNOS (Type 3)
T1 construct: the resulting supernatant was used as the crude enzyme sample of E-cNOS; endogenous in cells; host or cells: CPAE (cow pulmonary arterial endothelium cells), 1% Triton X-100 extract, 100,000 x g supernatant
Description: The crude enzyme sample of E-cNOS was prepared by the following procedure. A cow pulmonary arterial endothielium cell (CPAE) was cultured in a MEM medium containing 20% FBS. […] A suitable amount of Ca- and Mg-free phosphate buffer (pH 7.4) was added to the precipitating cells and they were centrifuged at 1,000 rpm for 10 min. The same step was repeated to wash the cells which, upon addition of 50 mM Tris-HCl (pH 7.4) containing 1% Triton X-100 and 1 mM DTT, were left to stand in ice for 1 h. Subsequently, the mixture was homogenized for 3 min and kept in ice for 30 min with occasional stirring. Finally, the mixture was centrifuged at 100,000×g for 60 min and the resulting supernatant was used as the crude enzyme sample of E-cNOS.
The reaction was started by addition of L-[^3H]arginine and following incubation at 37° C. for 10 min, the reaction was terminated by addition of 2 ml of 50 mM Tris-HCl (pH 5.5) containing 1 mM EDTA and placing the mixture on ice. The reaction solution was passed through a cation-exchange resin column (Dowex AG50WX-8, Na^+ form, 3.2 ml) to separate the reaction product L-[^3H]citrulline from the unreacted residual substrate L-[^3H]arginine. The eluate was combined with another eluate resulting from the passage of a given amount of distilled water through the column and put into a minivial for recovery of L-[^3H]citrulline. Thereafter, a scintillation fluid was added and the contained radioactivity was measured with a liquid scintillation counter to determine the amount of L-[^3H]citrulline.
The activity of N-cNOS or E-cNOS was determined by subtracting the activity as detected in the absence of CaCl2 and calmodulin from the activity as detected in the presence of CaCl2 and calmodulin. […] The protein concentration of each crude enzyme sample was determined with a micro-assay kit of Biorad Co. Each experiment was conducted in a duplicate.

iNOS (Type 2) = iNOS (Type 2) (Rattus norvegicus, UniProt Q06518); test: biochemical; assay type: biochemical
iNOS (Type 2), sequence (Q06518 whole entry, looked up): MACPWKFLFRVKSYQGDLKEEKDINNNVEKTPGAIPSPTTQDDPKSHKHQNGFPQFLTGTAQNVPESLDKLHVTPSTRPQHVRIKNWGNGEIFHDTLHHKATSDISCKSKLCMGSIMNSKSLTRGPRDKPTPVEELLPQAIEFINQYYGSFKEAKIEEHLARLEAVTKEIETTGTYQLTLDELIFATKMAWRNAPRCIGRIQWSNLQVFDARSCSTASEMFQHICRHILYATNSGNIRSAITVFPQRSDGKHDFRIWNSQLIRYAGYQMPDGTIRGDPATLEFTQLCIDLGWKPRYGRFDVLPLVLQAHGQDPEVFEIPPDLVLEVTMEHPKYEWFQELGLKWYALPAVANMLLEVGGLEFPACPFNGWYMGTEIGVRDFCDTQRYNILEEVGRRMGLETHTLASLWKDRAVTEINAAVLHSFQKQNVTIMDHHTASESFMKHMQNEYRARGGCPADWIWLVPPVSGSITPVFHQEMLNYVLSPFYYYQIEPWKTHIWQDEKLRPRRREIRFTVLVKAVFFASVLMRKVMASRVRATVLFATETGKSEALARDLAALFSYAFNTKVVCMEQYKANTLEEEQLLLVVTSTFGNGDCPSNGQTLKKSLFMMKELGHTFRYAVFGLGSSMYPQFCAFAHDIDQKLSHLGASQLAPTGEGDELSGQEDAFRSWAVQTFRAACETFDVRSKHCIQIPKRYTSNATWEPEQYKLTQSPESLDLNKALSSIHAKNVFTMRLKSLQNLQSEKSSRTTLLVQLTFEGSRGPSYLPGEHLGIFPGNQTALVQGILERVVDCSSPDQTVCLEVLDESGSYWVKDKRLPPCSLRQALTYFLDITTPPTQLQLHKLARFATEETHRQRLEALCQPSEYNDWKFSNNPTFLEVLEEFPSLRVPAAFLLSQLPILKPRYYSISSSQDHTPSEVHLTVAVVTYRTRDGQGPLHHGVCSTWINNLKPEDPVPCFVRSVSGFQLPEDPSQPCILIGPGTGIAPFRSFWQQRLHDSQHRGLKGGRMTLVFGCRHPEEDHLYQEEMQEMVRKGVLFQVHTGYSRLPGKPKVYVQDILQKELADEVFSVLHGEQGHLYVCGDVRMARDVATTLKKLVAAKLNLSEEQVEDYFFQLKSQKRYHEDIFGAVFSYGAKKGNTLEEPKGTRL

T1 sequence (P29473 2-1205): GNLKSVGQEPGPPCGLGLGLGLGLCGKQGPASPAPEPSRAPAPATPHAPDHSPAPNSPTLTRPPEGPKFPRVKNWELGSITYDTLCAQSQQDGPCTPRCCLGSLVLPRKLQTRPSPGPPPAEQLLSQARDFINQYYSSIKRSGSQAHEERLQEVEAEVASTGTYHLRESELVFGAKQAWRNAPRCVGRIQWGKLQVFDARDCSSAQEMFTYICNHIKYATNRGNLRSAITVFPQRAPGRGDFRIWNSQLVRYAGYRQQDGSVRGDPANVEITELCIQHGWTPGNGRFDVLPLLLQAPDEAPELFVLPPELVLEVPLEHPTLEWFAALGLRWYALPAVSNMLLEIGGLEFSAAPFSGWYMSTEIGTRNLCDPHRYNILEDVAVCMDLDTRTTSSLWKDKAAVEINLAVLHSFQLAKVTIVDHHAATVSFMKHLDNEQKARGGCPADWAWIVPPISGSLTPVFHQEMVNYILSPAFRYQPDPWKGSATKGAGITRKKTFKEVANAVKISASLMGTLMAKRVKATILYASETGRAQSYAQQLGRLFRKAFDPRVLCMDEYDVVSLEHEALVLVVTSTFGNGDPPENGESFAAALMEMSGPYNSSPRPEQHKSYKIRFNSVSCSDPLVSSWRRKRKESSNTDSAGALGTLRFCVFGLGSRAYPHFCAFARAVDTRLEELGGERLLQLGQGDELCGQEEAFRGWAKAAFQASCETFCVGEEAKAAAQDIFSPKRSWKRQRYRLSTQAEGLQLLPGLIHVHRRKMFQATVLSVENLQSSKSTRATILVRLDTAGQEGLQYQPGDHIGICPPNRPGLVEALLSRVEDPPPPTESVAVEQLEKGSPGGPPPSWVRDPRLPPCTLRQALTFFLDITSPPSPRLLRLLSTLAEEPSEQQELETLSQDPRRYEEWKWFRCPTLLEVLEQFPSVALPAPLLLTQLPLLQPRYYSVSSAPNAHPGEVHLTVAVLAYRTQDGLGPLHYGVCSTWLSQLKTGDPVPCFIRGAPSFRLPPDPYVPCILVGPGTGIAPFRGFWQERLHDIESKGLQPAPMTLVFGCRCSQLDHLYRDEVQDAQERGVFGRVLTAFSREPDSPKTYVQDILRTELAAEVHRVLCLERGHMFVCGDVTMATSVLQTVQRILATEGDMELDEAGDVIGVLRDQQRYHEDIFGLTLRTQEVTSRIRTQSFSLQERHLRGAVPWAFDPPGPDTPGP
N-cNOS, sequence (P29475 whole entry): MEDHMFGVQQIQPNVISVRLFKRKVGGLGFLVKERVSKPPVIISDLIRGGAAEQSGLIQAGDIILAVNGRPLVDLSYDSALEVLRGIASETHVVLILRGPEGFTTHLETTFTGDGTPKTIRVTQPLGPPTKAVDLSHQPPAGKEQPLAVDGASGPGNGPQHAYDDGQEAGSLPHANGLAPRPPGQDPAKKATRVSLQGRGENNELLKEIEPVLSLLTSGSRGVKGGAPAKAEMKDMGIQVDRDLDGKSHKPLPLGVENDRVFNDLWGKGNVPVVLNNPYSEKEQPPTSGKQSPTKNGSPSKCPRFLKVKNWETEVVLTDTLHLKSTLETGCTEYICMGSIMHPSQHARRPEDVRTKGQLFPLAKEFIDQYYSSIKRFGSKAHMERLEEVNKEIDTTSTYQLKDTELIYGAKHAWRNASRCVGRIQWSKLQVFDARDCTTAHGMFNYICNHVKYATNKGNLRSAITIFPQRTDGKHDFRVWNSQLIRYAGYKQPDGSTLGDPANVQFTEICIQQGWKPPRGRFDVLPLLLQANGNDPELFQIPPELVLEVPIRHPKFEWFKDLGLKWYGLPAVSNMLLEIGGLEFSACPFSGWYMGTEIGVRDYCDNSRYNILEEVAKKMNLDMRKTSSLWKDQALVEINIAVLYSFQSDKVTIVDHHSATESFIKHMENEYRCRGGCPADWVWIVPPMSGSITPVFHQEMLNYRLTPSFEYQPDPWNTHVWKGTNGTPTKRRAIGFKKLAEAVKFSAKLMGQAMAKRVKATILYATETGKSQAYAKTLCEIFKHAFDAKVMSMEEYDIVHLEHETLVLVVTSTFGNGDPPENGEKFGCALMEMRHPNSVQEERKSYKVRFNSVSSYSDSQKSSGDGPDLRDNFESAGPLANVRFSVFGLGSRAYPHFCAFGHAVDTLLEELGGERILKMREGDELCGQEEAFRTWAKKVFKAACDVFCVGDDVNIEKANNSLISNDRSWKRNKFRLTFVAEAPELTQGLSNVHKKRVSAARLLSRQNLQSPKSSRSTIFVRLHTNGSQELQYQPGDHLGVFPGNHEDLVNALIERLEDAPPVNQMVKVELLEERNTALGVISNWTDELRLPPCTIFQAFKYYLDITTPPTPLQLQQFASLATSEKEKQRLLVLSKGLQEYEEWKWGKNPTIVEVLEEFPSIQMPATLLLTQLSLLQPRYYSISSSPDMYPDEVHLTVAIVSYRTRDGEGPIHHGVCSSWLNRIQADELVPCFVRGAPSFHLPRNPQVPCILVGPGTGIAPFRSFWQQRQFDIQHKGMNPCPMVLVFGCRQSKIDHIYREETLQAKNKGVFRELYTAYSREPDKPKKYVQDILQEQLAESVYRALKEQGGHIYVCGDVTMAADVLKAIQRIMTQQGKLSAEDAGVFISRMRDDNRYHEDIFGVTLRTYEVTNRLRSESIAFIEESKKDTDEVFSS
iNOS, sequence (P35228 whole entry): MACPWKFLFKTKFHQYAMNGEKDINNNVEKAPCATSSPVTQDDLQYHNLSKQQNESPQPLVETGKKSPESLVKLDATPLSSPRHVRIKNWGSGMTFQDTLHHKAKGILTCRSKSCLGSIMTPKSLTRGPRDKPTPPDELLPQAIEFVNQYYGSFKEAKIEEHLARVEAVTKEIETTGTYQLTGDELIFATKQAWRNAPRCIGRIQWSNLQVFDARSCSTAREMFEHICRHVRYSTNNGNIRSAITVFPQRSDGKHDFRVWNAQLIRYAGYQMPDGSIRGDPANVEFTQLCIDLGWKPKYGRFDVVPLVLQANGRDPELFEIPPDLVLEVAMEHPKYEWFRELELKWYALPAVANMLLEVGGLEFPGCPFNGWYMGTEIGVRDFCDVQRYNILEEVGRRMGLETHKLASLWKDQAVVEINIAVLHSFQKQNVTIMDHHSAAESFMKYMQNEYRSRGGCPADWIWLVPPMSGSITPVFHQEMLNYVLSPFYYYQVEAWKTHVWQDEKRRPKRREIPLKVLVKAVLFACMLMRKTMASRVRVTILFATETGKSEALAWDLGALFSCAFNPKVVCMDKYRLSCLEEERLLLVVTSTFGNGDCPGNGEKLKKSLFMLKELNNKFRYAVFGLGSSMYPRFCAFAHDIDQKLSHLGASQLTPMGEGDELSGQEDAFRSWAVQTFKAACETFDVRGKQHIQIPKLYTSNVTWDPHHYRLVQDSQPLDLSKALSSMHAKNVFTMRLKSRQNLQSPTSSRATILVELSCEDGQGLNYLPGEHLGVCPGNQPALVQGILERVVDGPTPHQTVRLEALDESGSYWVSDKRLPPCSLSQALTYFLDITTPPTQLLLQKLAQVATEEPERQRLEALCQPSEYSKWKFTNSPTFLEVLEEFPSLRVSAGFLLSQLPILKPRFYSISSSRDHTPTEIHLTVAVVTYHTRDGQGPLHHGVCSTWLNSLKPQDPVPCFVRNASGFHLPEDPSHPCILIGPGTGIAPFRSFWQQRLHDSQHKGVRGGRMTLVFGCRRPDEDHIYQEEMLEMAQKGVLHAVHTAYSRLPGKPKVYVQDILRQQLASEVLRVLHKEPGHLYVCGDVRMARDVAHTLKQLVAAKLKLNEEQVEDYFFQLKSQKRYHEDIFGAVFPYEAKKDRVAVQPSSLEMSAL

Row | SMILES | reported selectivity for iNOS (iNOS) | reported selectivity for N-cNOS (N-cNOS) | IC50 (E-cNOS (Type 3)) | Ratio of IC50 values E-cNOS/iNOS (iNOS (Type 2)) | iNOS inhibitory potency compared with the existing NOS inhibitors (L-MIN) (iNOS (Type 2); conclusion from Tables 49, 50 and 51) | IC50 (iNOS (Type 2); mean of one to four independent experiments, crude enzyme, 100 nM L-[3H]arginine, without CaCl2 and calmodulin, read-out: IC50 value, iNOS (Type 2))
1 | N=C(N)NN [AG, aminoguanidine] | selectivity for iNOS |  |  |  |  | 
2 | CSC(=N)NCCC[C@H](N)C(=O)O [L-MIN, S-methyl-L-thiocitrulline, reference compound] |  | selectivity for N-cNOS | 152 nM | 0.6 | the strongest iNOS inhibitory activity in the existing NOS inhibitors | 248 nM
